For 24 molecules, DC50 results are on record in patent US20250346574A1, “PYRIDINYL SUBSTITUTED OXOISOINDOLINE COMPOUNDS FOR THE TREATMENT OF CANCER” (Bristol-Myers Squibb Company, priority 2021, published 2025).

Chain of Helios (Q9UKS7 whole entry): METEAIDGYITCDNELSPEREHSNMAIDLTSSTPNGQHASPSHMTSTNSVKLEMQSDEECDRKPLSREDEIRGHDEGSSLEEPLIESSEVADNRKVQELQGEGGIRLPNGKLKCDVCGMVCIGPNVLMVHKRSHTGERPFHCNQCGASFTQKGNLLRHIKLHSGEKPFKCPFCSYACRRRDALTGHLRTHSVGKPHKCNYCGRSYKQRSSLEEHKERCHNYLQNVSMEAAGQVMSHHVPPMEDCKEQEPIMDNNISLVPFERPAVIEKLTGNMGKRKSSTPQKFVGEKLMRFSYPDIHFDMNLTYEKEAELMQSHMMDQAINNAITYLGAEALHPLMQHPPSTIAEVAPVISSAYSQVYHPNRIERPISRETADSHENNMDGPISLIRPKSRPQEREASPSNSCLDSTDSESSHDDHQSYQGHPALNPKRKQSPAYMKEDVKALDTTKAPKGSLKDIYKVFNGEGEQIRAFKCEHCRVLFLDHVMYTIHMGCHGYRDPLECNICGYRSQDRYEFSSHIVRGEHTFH
Chain of Helios (Q96SW2 whole entry): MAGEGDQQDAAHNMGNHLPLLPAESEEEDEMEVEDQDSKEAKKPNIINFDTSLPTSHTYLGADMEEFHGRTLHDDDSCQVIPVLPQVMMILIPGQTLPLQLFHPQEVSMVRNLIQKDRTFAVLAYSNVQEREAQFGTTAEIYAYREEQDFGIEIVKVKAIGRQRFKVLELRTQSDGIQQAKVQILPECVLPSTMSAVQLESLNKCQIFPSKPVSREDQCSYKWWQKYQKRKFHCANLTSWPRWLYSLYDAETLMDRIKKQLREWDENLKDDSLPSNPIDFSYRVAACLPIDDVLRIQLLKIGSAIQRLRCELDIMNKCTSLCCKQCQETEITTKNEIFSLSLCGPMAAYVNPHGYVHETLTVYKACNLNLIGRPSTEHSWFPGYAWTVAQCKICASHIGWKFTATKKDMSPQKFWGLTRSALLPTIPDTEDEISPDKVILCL
Chain of Helios (Q16531 whole entry partner): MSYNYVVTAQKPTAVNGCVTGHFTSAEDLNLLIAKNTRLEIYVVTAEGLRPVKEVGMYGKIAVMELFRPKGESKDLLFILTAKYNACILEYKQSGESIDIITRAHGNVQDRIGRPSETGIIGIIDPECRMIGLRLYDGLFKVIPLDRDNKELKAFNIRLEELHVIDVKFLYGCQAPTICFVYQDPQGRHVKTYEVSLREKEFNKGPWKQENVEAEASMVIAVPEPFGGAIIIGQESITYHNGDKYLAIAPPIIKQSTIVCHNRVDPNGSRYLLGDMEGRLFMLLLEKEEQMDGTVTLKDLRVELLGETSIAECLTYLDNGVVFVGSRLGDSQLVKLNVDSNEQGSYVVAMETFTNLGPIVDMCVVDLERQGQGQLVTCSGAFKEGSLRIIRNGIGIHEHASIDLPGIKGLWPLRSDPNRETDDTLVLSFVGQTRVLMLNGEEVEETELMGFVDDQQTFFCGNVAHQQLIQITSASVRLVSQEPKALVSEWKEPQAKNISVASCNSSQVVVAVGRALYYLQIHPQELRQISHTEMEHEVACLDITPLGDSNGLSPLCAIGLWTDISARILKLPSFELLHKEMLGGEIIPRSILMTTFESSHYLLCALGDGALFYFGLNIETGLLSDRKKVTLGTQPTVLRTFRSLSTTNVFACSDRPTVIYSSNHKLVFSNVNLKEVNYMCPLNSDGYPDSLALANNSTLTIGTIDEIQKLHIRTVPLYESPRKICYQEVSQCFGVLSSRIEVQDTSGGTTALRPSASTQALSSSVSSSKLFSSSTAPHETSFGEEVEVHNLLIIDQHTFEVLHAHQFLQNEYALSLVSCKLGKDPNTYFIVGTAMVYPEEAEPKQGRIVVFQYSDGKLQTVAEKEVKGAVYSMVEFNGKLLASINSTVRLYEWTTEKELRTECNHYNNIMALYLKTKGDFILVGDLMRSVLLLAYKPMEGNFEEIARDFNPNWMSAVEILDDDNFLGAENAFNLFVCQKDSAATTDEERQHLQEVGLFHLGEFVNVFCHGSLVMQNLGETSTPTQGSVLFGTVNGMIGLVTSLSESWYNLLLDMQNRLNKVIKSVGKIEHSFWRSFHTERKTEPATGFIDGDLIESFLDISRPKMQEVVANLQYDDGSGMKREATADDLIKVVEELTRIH

The target of the test is Helios (Homo sapiens, UniProt Q96SW2+Q9UKS7). The test is described as follows: Helios Human T Regulatory Cells Degradation Assay. The test is classed as cell-based. Also on record: fluorescently labelled antibodies against Helios in 1× Permeabilization buffer; endogenous in cells; host or cells: cryopreserved human T regulatory cells. The conditions noted are these: cryopreserved human T regulatory cells, incubated 20 hours, Helios-APC antibody staining, flow cytometry; read-out: hTreg Helios DC50. A digest of the protocol:
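Cryopreserved human Treg cells thawed in RPMI+10% FBS+20 ng/mL IL-2, rested 3 h, then incubated with compound 20 hours at 37° C, 5% CO2. Near-IR viability stain, permeabilization, flow cytometry read-out.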
In general terms: Flow cytometry measures light scatter and fluorescence of single cells or particles in a stream.
On to `O=C1CCC(N2Cc3cc(-c4nccc(CN5CC[C@@H](F)C5)c4F)ccc3C2=O)C(=O)N1` (stereo partly drawn) [Example 258, 3-(5-(3-fluoro-4-(((R)-3-fluoropyrrolidin-1-yl)methyl)pyridin-2-yl)-1-oxoisoindolin-2-yl)piperidine-2,6-dione], for which the DC50 is at least 10000 nM. In the case of `O=C1CCC(N2Cc3cc(-c4nccc(CN5CCc6oncc6C5)c4F)ccc3C2=O)C(=O)N1` (stereo not drawn) [Example 259, 3-(5-(4-((6,7-dihydroisoxazolo[4,5-c]pyridin-5(4H)-yl)methyl)-3-fluoropyridin-2-yl)-1-oxoisoindolin-2-yl)piperidine-2,6-dione] it was at least 10000 nM. In the case of `O=C1CCC(N2Cc3cc(-c4nccc(CN5CCC(F)CC5)c4F)ccc3C2=O)C(=O)N1` (stereo not drawn) [Example 260, 3-(5-(3-fluoro-4-((4-fluoropiperidin-1-yl)methyl)pyridin-2-yl)-1-oxoisoindolin-2-yl)piperidine-2,6-dione] it was 140 nM. In the case of `O=C1CCC(N2Cc3cc(-c4nccc(CN5CCC(F)(F)CC5)c4F)ccc3C2=O)C(=O)N1` (stereo not drawn) [Example 261, 3-(5-(4-((4,4-difluoropiperidin-1-yl)methyl)-3-fluoropyridin-2-yl)-1-oxoisoindolin-2-yl)piperidine-2,6-dione] it was at least 10000 nM. On to `Cc1nnc2n1CCN(Cc1ccnc(-c3ccc4c(c3)CN(C3CCC(=O)NC3=O)C4=O)c1F)C2` (stereo not drawn) [Example 262, 3-(5-(3-fluoro-4-((3-methyl-5,6-dihydro-[1,2,4]triazolo[4,3-a]pyrazin-7(8H)-yl)methyl)pyridin-2-yl)-1-oxoisoindolin-2-yl)piperidine-2,6-dione], for which the DC50 was at least 10000 nM. In the case of `O=C1CCC(N2Cc3cc(-c4nccc(CN5CCn6cnnc6C5)c4F)ccc3C2=O)C(=O)N1` (stereo not drawn) [Example 263, 3-(5-(4-((5,6-dihydro-[1,2,4]triazolo[4,3-a]pyrazin-7(8H)-yl)methyl)-3-fluoropyridin-2-yl)-1-oxoisoindolin-2-yl)piperidine-2,6-dione], the DC50 came to 1230 nM. The value for `Cc1c2c(nn1C)CCN(Cc1ccnc(-c3ccc4c(c3)CN(C3CCC(=O)NC3=O)C4=O)c1F)C2` (stereo not drawn) [Example 265, 3-(5-(4-((2,3-dimethyl-2,4,6,7-tetrahydro-5H-pyrazolo[4,3-c]pyridin-5-yl)methyl)-3-fluoropyridin-2-yl)-1-oxoisoindolin-2-yl)piperidine-2,6-dione] was at least 10000 nM.

For the molecule `O=C1CCC(N2Cc3cc(-c4nccc(CN5CCn6c(nnc6C(F)(F)F)C5)c4F)ccc3C2=O)C(=O)N1` (stereo not drawn) [Example 266, 3-(5-(3-fluoro-4-((3-(trifluoromethyl)-5,6-dihydro-[1,2,4]triazolo[4,3-a]pyrazin-7(8H)-yl)methyl)pyridin-2-yl)-1-oxoisoindolin-2-yl)piperidine-2,6-dione], the DC50 was at least 10000 nM. In the case of `O=C1CCC(N2Cc3cc(-c4nccc(CN5CCc6c(ccnc6Cl)C5)c4F)ccc3C2=O)C(=O)N1` (stereo not drawn) [Example 267, 3-(5-(4-((5-chloro-3,4-dihydro-2,6-naphthyridin-2(1H)-yl)methyl)-3-fluoropyridin-2-yl)-1-oxoisoindolin-2-yl)piperidine-2,6-dione] it was at least 10000 nM; in that of `O=C1CCC(N2Cc3cc(-c4nccc(CN5CCc6cccc(Cl)c6C5)c4F)ccc3C2=O)C(=O)N1` (stereo not drawn) [Example 268, 3-(5-(4-((8-chloro-3,4-dihydroisoquinolin-2(1H)-yl)methyl)-3-fluoropyridin-2-yl)-1-oxoisoindolin-2-yl)piperidine-2,6-dione], at least 10000 nM; in that of `CC(=O)N1CCCC12CCN(Cc1ccnc(-c3ccc4c(c3)CN(C3CCC(=O)NC3=O)C4=O)c1F)C2` (stereo not drawn) [Example 270, 3-(5-(4-((1-acetyl-1,7-diazaspiro[4.4]nonan-7-yl)methyl)-3-fluoropyridin-2-yl)-1-oxoisoindolin-2-yl)piperidine-2,6-dione], at least 10000 nM. In the case of `COC(=O)N1CCCC12CCN(Cc1ccnc(-c3ccc4c(c3)CN(C3CCC(=O)NC3=O)C4=O)c1F)C2` (stereo not drawn) [Example 271, methyl 7-((2-(2-(2,6-dioxopiperidin-3-yl)-1-oxoisoindolin-5-yl)-3-fluoropyridin-4-yl)methyl)-1,7-diazaspiro[4.4]nonane-1-carboxylate] it was at least 10000 nM; in that of `CC(=O)N1CCC2(CN(Cc3ccnc(-c4ccc5c(c4)CN(C4CCC(=O)NC4=O)C5=O)c3F)C2)C1` (stereo not drawn) [Example 272, 3-(5-(4-((6-acetyl-2,6-diazaspiro[3.4]octan-2-yl)methyl)-3-fluoropyridin-2-yl)-1-oxoisoindolin-2-yl)piperidine-2,6-dione], 280 nM. As to `COC(=O)N1CCC2(CN(Cc3ccnc(-c4ccc5c(c4)CN(C4CCC(=O)NC4=O)C5=O)c3F)C2)C1` (stereo not drawn) [Example 273, methyl 2-((2-(2-(2,6-dioxopiperidin-3-yl)-1-oxoisoindolin-5-yl)-3-fluoropyridin-4-yl)methyl)-2,6-diazaspiro[3.4]octane-6-carboxylate], the DC50 amounted to 280 nM. In the case of `CC(=O)N1CC2CCCN(Cc3ccnc(-c4ccc5c(c4)CN(C4CCC(=O)NC4=O)C5=O)c3F)C2C1` (stereo not drawn) [Example 274, 3-(5-(4-((6-acetyloctahydro-1H-pyrrolo[3,4-b]pyridin-1-yl)methyl)-3-fluoropyridin-2-yl)-1-oxoisoindolin-2-yl)piperidine-2,6-dione] it was at least 10000 nM; in that of `COC(=O)N1CC2CCCN(Cc3ccnc(-c4ccc5c(c4)CN(C4CCC(=O)NC4=O)C5=O)c3F)C2C1` (stereo not drawn) [Example 275, methyl 1-((2-(2-(2,6-dioxopiperidin-3-yl)-1-oxoisoindolin-5-yl)-3-fluoropyridin-4-yl)methyl)octahydro-6H-pyrrolo[3,4-b]pyridine-6-carboxylate], at least 10000 nM. As to `CC(C)(O)C1CCN(Cc2ccnc(-c3ccc4c(c3F)CN(C3CCC(=O)NC3=O)C4=O)c2F)CC1` (stereo not drawn) [Example 276, 3-(4-fluoro-5-(3-fluoro-4-((4-(2-hydroxypropan-2-yl)piperidin-1-yl)methyl)pyridin-2-yl)-1-oxoisoindolin-2-yl)piperidine-2,6-dione], the DC50 stood at 28 nM.

As to `O=C1CCC(N2Cc3c(ccc(-c4nccc(CN5CC[C@H](CO)C5)c4F)c3F)C2=O)C(=O)N1` (stereo partly drawn) [Example 277, 3-(4-fluoro-5-(3-fluoro-4-(((S)-3-(hydroxymethyl)pyrrolidin-1-yl)methyl)pyridin-2-yl)-1-oxoisoindolin-2-yl)piperidine-2,6-dione], the DC50 came out at 31.9 nM. In the case of `CC(C)(O)[C@@H]1CCN(Cc2ccnc(-c3ccc4c(c3F)CN(C3CCC(=O)NC3=O)C4=O)c2F)C1` (stereo partly drawn) [Example 278, 3-(4-fluoro-5-(3-fluoro-4-(((R)-3-(2-hydroxypropan-2-yl)pyrrolidin-1-yl)methyl)pyridin-2-yl)-1-oxoisoindolin-2-yl)piperidine-2,6-dione], the DC50 is 31.8 nM. Regarding `CC(C)(O)[C@H]1CCN(Cc2ccnc(-c3ccc4c(c3F)CN(C3CCC(=O)NC3=O)C4=O)c2F)C1` (stereo partly drawn) [Example 279, 3-(4-fluoro-5-(3-fluoro-4-(((S)-3-(2-hydroxypropan-2-yl)pyrrolidin-1-yl)methyl)pyridin-2-yl)-1-oxoisoindolin-2-yl)piperidine-2,6-dione], the DC50 worked out at 34.3 nM. `O=C1CCC(N2Cc3c(ccc(-c4nccc(CN5CCC(O)(c6ccccc6)CC5)c4F)c3F)C2=O)C(=O)N1` (stereo not drawn) [Example 280, 3-(4-fluoro-5-(3-fluoro-4-((4-hydroxy-4-phenylpiperidin-1-yl)methyl)pyridin-2-yl)-1-oxoisoindolin-2-yl)piperidine-2,6-dione]: the DC50 is at least 10000 nM. The value for `CC(C)(O)C1CN(Cc2ccnc(-c3ccc4c(c3F)CN(C3CCC(=O)NC3=O)C4=O)c2F)C1` (stereo not drawn) [Example 281, 3-(4-fluoro-5-(3-fluoro-4-((3-(2-hydroxypropan-2-yl)azetidin-1-yl)methyl)pyridin-2-yl)-1-oxoisoindolin-2-yl)piperidine-2,6-dione] was 22.1 nM; that for `O=C1CCC(N2Cc3c(ccc(-c4nccc(CN5CCn6c(nnc6C(F)(F)F)C5)c4F)c3F)C2=O)C(=O)N1` (stereo not drawn) [Example 282, 3-(4-fluoro-5-(3-fluoro-4-((3-(trifluoromethyl)-5,6-dihydro-[1,2,4]triazolo[4,3-a]pyrazin-7(8H)-yl)methyl)pyridin-2-yl)-1-oxoisoindolin-2-yl)piperidine-2,6-dione] was at least 10000 nM. The value for `O=C1CCC(N2Cc3c(ccc(-c4nccc(CN5CCc6c(ccnc6Cl)C5)c4F)c3F)C2=O)C(=O)N1` (stereo not drawn) [Example 283, 3-(5-(4-((5-chloro-3,4-dihydro-2,6-naphthyridin-2(1H)-yl)methyl)-3-fluoropyridin-2-yl)-4-fluoro-1-oxoisoindolin-2-yl) piperidine-2,6-dione] was at least 10000 nM.

One may read the DC50 as the midpoint of the concentration-degradation curve.
